In ChEMBL document CHEMBL4680294, “Synthesis of nature product kinsenoside analogues with anti-inflammatory activity” (Bioorg Med Chem, 2021):
Active and inactive are the calls of the source. The rule behind the calls is not given here.

What was measured:
RAW264.7 [1] = experiment: Antiinflammatory activity against mouse RAW 264.7 cells assessed as inhibition of LPS-induced NO production incubated for 24 hrs by Griess assay; format: functional, cell-based; conditions: RAW264.7, 24 h
RAW264.7 [2] = experiment: Cytotoxicity against mouse RAW 264.7 cells incubated for 24 hrs by MTT assay; format: cell-based; conditions: raw264.7, 24 h
RAW264.7 [3] = experiment: Antiinflammatory activity against mouse RAW 264.7 cells assessed as inhibition of LPS-induced COX2 production at 50 uM preincubated for 1 hr followed by LPS addition measured after 16 hrs by Western blot analysis; format: functional, cell-based; conditions: time 17.0 hrs
RAW264.7 [4] = experiment: Antiinflammatory activity against mouse RAW 264.7 cells assessed as inhibition of LPS-induced IL-1beta mRNA level at 50 uM preincubated for 1 hr followed by LPS addition measured after 16 hrs by RT-PCR analysis; format: functional, cell-based; conditions: time 17.0 hrs
RAW264.7 [5] = experiment: Antiinflammatory activity against mouse RAW 264.7 cells assessed as inhibition of LPS-induced iNOS production at 50 uM preincubated for 1 hr followed by LPS addition measured after 16 hrs by Western blot analysis; format: functional, cell-based; conditions: time 17.0 hrs
RAW264.7 [6] = experiment: Antiinflammatory activity against mouse RAW 264.7 cells assessed as inhibition of LPS-induced translocation into nucleus at 50 uM by preincubated for 1 hr followed by LPS addition measured after 16 hrs by immunofluorescence assay; format: functional, cell-based; conditions: time 17.0 hrs
RAW264.7 [7] = experiment: Antiinflammatory activity against mouse RAW 264.7 cells assessed as inhibition of LPS-induced IL-6 mRNA level at 50 uM preincubated for 1 hr followed by LPS addition measured after 16 hrs by RT-PCR analysis; format: functional, cell-based; conditions: time 17.0 hrs
RAW264.7 [8] = experiment: Antiinflammatory activity against mouse RAW 264.7 cells assessed as inhibition of LPS-induced TNF-alpha mRNA level at 50 uM preincubated for 1 hr followed by LPS addition measured after 16 hrs by RT-PCR analysis; format: functional, cell-based; conditions: time 17.0 hrs
RAW264.7 [9] = experiment: Antiinflammatory activity against mouse RAW 264.7 cells assessed as inhibition of LPS-induced NO production at 50 uM incubated for 24 hrs by Griess assay relative to control; format: functional
RAW264.7 [10] = experiment: Antiinflammatory activity against mouse RAW 264.7 cells assessed as inhibition of LPS-induced IL-1alpha mRNA level at 50 uM preincubated for 1 hr followed by LPS addition measured after 16 hrs by RT-PCR analysis; format: functional, cell-based; conditions: time 17.0 hrs
RAW264.7 [11] = experiment: Antiinflammatory activity against mouse RAW 264.7 cells assessed as inhibition of LPS-induced IL-1beta mRNA level upto 50 uM preincubated for 1 hr followed by LPS addition measured after 16 hrs by RT-PCR analysis; format: functional, cell-based; conditions: dose microM <=50, time 17.0 hrs
RAW264.7 [12] = experiment: Antiinflammatory activity against mouse RAW 264.7 cells assessed as inhibition of LPS-induced IL-6 mRNA level upto 50 uM preincubated for 1 hr followed by LPS addition measured after 16 hrs by RT-PCR analysis; format: functional, cell-based; conditions: dose microM <=50, time 17.0 hrs
RAW264.7 [13] = experiment: Antiinflammatory activity against mouse RAW 264.7 cells assessed as inhibition of LPS-induced COX2 production preincubated for 1 hr followed by LPS addition measured after 16 hrs by Western blot analysis; format: functional, cell-based; conditions: time 17.0 hrs
RAW264.7 [14] = experiment: Antiinflammatory activity against mouse RAW 264.7 cells assessed as inhibition of LPS-induced IkappaB-alpha level preincubated for 1 hr followed by LPS addition measured after 16 hrs by Western blot analysis; format: functional, cell-based; conditions: time 17.0 hrs
RAW264.7 [15] = experiment: Antiinflammatory activity against mouse RAW 264.7 cells assessed as inhibition of LPS-induced […] p-p65 level preincubated for 1 hr followed by LPS addition measured after 16 hrs by Western blot analysis; format: functional, cell-based; conditions: time 17.0 hrs
RAW264.7 [16] = experiment: Antiinflammatory activity against mouse RAW 264.7 cells assessed as inhibition of LPS-induced IL-1alpha mRNA level upto 50 uM preincubated for 1 hr followed by LPS addition measured after 16 hrs by RT-PCR analysis; format: functional, cell-based; conditions: dose microM <=50, time 17.0 hrs
RAW264.7 [17] = experiment: Antiinflammatory activity against mouse RAW 264.7 cells assessed as inhibition of LPS-induced translocation into nucleus upto 50 uM by preincubated for 1 hr followed by LPS addition measured after 16 hrs by immunofluorescence assay; format: functional, cell-based; conditions: dose microM <=50, time 17.0 hrs
RAW264.7 [18] = experiment: Antiinflammatory activity against mouse RAW 264.7 cells assessed as inhibition of LPS-induced iNOS production preincubated for 1 hr followed by LPS addition measured after 16 hrs by Western blot analysis; format: functional, cell-based; conditions: time 17.0 hrs
RAW264.7 [19] = experiment: Antiinflammatory activity against mouse RAW 264.7 cells assessed as inhibition of LPS-induced TNF-alpha mRNA level upto 50 uM preincubated for 1 hr followed by LPS addition measured after 16 hrs by RT-PCR analysis; format: functional, cell-based; conditions: dose microM <=50, time 17.0 hrs

Structure (SMILES): O=C1C[C@@H](O[C@@H]2O[C@H](CO)[C@@H](O)[C@H](O)[C@H]2O)CO1
- IC50 (RAW264.7 [1]): 41.9 µM
- Activity (RAW264.7 [2]): Non-Toxic

Structure (SMILES): O=C1C[C@H](O[C@H]2O[C@H](CO)[C@H](O)[C@H](O)[C@H]2O)CO1
- IC50 (RAW264.7 [1]): 66.5 µM

Structure (SMILES): C[C@@H]1O[C@@H](O[C@H]2CC(=O)N(Cc3ccccc3)C2)[C@H](O)[C@H](O)[C@H]1O
- IC50 (RAW264.7 [1]): 69.7 µM

Structure (SMILES): C[C@@H]1O[C@@H](O[C@@H]2CNC(=O)C2)[C@H](O)[C@H](O)[C@H]1O
- IC50 (RAW264.7 [1]): 66.9 µM

Structure (SMILES): O=C1C[C@H](O[C@H]2O[C@H](CO)[C@@H](O)[C@H](O)[C@H]2O)CN1Cc1ccccc1
- IC50 (RAW264.7 [1]): 105 µM

Structure (SMILES): O=C(NO)c1ccc(O)c(O)c1
- inhibition (RAW264.7 [3]): Active
- inhibition (RAW264.7 [4]): Active
- inhibition (RAW264.7 [5]): Active
- inhibition (RAW264.7 [6]): Active
- inhibition (RAW264.7 [7]): Active
- inhibition (RAW264.7 [8]): Active
- inhibition at 50 µM (RAW264.7 [9]): 70%
- inhibition (RAW264.7 [10]): Active

Structure (SMILES): O=C1C[C@@H](O[C@H]2O[C@H](CO)[C@@H](O)[C@H](O)[C@H]2O)CN1
- IC50 (RAW264.7 [1]): 89 µM

Structure (SMILES): O=C1C[C@@H](O[C@@H]2O[C@H](CO)[C@H](O)[C@H](O)[C@H]2O)CO1
- IC50 (RAW264.7 [1]): 41.5 µM
- Activity (RAW264.7 [2]): Non-Toxic

Structure (SMILES): O=C1C[C@@H](O[C@H]2O[C@H](CO)[C@@H](O)[C@H](O)[C@H]2O)CN1Cc1ccccc1
- IC50 (RAW264.7 [1]): 72.5 µM

Structure (SMILES): C[C@@H]1O[C@@H](O[C@@H]2COC(=O)C2)[C@H](O)[C@H](O)[C@H]1O
- IC50 (RAW264.7 [1]): 60.7 µM

Structure (SMILES): C[C@@H]1O[C@@H](O[C@H]2COC(=O)C2)[C@H](O)[C@H](O)[C@H]1O
- IC50 (RAW264.7 [1]): 41.2 µM
- Activity (RAW264.7 [2]): Non-Toxic

Structure (SMILES): O=C1C[C@H](O[C@H]2O[C@H](CO)[C@@H](O)[C@H](O)[C@H]2O)CO1
- IC50 (RAW264.7 [1]): 91.3 µM

Structure (SMILES): C[C@@H]1O[C@@H](O[C@H]2CNC(=O)C2)[C@H](O)[C@H](O)[C@H]1O
- IC50 (RAW264.7 [1]): 116 µM

Structure (SMILES): O=C1C[C@@H](O[C@H]2O[C@H](CO)[C@@H](O)[C@H](O)[C@@H]2O)CO1
- IC50 (RAW264.7 [1]): 42.9 µM
- Activity (RAW264.7 [2]): Non-Toxic

Structure (SMILES): O=C1C[C@@H](O[C@H]2O[C@H](CO)[C@@H](O)[C@H](O)[C@@H]2O)CN1
- IC50 (RAW264.7 [1]): 108 µM

Structure (SMILES): O=C1C[C@H](O[C@H]2O[C@H](CO)[C@@H](O)[C@H](O)[C@@H]2O)CO1
- IC50 (RAW264.7 [1]): 38.7 µM
- Activity (RAW264.7 [2]): Non-Toxic

Structure (SMILES): O=C1C[C@H](O[C@H]2O[C@H](CO)[C@@H](O)[C@H](O)[C@@H]2O)CN1
- IC50 (RAW264.7 [1]): 67.1 µM

Structure (SMILES): C[C@@H]1O[C@@H](O[C@@H]2CC(=O)N(Cc3ccccc3)C2)[C@H](O)[C@H](O)[C@H]1O
- IC50 (RAW264.7 [1]): 56 µM

Structure (SMILES): O=C1C[C@H](O[C@H]2O[C@H](CO)[C@@H](O)[C@H](O)[C@@H]2O)CN1Cc1ccccc1
- IC50 (RAW264.7 [1]): 64 µM

Structure (SMILES): O=C1C[C@H](O[C@@H]2O[C@H](CO)[C@@H](O)[C@H](O)[C@H]2O)CO1 [GOODYEROSIDE]
- inhibition (RAW264.7 [11]): Active
- IC50 (RAW264.7 [1]): 27.9 µM
- inhibition (RAW264.7 [12]): Active
- inhibition (RAW264.7 [13]): Dose-dependent effect
- inhibition (RAW264.7 [14]): Active
- Activity (RAW264.7 [2]): Non-Toxic
- inhibition (RAW264.7 [15]): Active
- inhibition (RAW264.7 [16]): Active
- inhibition (RAW264.7 [17]): Active
- inhibition (RAW264.7 [18]): Dose-dependent effect
- inhibition (RAW264.7 [19]): Active

Structure (SMILES): O=C1C[C@H](O[C@H]2O[C@H](CO)[C@@H](O)[C@H](O)[C@H]2O)CN1
- IC50 (RAW264.7 [1]): 80.9 µM

Structure (SMILES): O=C1C[C@@H](O[C@H]2O[C@H](CO)[C@@H](O)[C@H](O)[C@@H]2O)CN1Cc1ccccc1
- IC50 (RAW264.7 [1]): 97.2 µM
